Experimental data from BindingDB's records for doi:10.1124/jpet.104.066092 (Wyeth Research, 2004).

Biological target: Glutamate receptor ionotropic, NMDA 1 (Rattus norvegicus, UniProt P35439)

O=C(O)[C@@H]1C[C@H](CP(=O)(O)O)CCN1 [Selfotel]
Ki: > 10 µM
